Assay results taken from US8759334B2, “Compounds useful for the treatment of metabolic and inflammatory diseases” (Galapagos NV, priority 2011, dated 2014).

Biological target: T1, GPR43 (Homo sapiens, UniProt O15552)
T1 construct: expressed in transfected cells
T1 sequence (O15552 1-330): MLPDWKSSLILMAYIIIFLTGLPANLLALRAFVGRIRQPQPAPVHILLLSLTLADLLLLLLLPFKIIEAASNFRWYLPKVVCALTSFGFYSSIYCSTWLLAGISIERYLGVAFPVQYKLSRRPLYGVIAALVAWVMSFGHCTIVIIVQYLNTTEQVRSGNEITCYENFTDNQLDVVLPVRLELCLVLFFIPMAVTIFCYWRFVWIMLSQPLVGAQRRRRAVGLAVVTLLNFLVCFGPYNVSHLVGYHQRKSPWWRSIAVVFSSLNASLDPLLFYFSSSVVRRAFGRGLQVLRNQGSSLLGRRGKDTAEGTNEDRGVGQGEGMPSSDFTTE
Experiment: Calcium mobilization assay with probenecid
Type: cell-based
Settings: GPR43 stably expressing cells; triggered with sodium acetate at EC80; 2.5 mM probenecid; read-out: GPR43 assay with probenicid IC50
Method: The following assay can be used for determination of GPR43 activation. The assay measures intracellular calcium release induced by activation of GPR43. On day 1, GPR43 stably expressing cells were detached with mild trypsinization (Trypsin, 0.25% with EDTA 4Na, 5× diluted in PBS) centrifuged at 1000 rpm for 5 min and resuspended at 6.000 cells/25 […] medium (DMEM supplemented with 10% FBS, 10 μg/mL puromycin and 1% Pen/Strep). The cells were distributed in poly-D-lysine coated 384 well plates (black with clear bottom, 25 μL/well) and incubated overnight at 37° C. 10% CO2.
On day 2, 25 μL of a fluorescent Ca^2+ indicator (Calcium 4 assay; Molecular Devices) supplemented with 2.5 mM probenecid was added on top of the cells and incubated for 2 h at 37° C. Subsequently, compounds at increasing concentration (10 μL/well) were added to the plate and incubated for 15 min at 37° C.
To measure agonist activity of the compounds, compound was added to the well and the Ca^2+-flux was measured simultaneously to the […] of compound.

IC50 [nM]	Compound
0.01 to 100	C[C@@H](c1cccc(Cl)c1)N(CCCC(=O)NS(C)(=O)=O)C(=O)[C@@]1(C)CCN1C(=O)c1csc2ccccc12 [Compound 231, (R)-1-(benzo[b]thiophene-3-carbonyl)-N-((S)-1-(3-chlorophenyl)ethyl)-2-methyl-N-(4-(methylsulfonamido)-4-oxobutyl)azetidine-2-carboxamide]
0.01 to 100	C=CCC1(C(=O)N(CCCC(=O)NS(C)(=O)=O)Cc2cccc(Cl)c2)CCN1C(=O)c1csc2ccccc12 (stereo not shown) [Compound 229, 2-allyl-1-(benzo[b]thiophene-3-carbonyl)-N-(3-chlorobenzyl)-N-(4-(methylsulfonamido)-4-oxobutyl)azetidine-2-carboxamide]
> 1000	CC1(C(=O)N(CCCC(=O)N2CCOCC2)Cc2ccc(Cl)cc2)CCN1C(=O)c1csc2ccccc12 (stereo not shown) [Compound 139, 1-(benzo[b]thiophene-3-carbonyl)-N-(4-chlorobenzyl)-2-methyl-N-(4-morpholino-4-oxobutyl)azetidine-2-carboxamide]
> 1000	CC1(C(=O)N(CCCC(=O)O)Cc2ccc(Cl)cc2)CCN1C(=O)Oc1cc(C(F)(F)F)ccc1Cl (stereo not shown) [Compound 236, 4-(1-((2-chloro-5-(trifluoromethyl)phenoxy)carbonyl)-N-(4-chlorobenzyl)-2-methylazetidine-2-carboxamido)butanoic acid]
0.01 to 100	CC1(C(=O)N(CCS(N)(=O)=O)Cc2ccc(Cl)cc2)CCN1C(=O)c1csc2ccccc12 (stereo not shown) [Compound 192, 1-(Benzo[b]thiophene-3-carbonyl)-2-methyl-azetidine-2-carboxylic acid (4-chloro-benzyl)-(2-sulfamoyl-ethyl)-amide]
101 to 500	CC1(C(=O)N(CCCC(N)=O)Cc2ccc(Cl)cc2)CCN1C(=O)Cc1coc2ccccc12 (stereo not shown) [Compound 166, 1-(2-Benzofuran-3-yl-acetyl)-2-methyl-azetidine-2-carboxylic acid (3-carbamoyl-propyl)-(4-chloro-benzyl)-amide]
> 1000	CC1(C(=O)N(CCCC(=O)O)c2ccccn2)CCN1C(=O)c1csc2ccccc12 (stereo not shown) [Compound 253, 4-(1-(benzo[b]thiophene-3-carbonyl)-2-methyl-N-(pyridin-2-yl)azetidine-2-carboxamido)butanoic acid]
> 1000	Cc1cc(C)cc(CC(=O)N2CCC2(C)C(=O)N(CCCC(=O)N(C)C)Cc2ccc(Cl)cc2)c1 (stereo not shown) [Compound 125, 1-[2-(3,5-Dimethyl-phenyl)-acetyl]-2-methyl-azetidine-2-carboxylic acid (4-chloro-benzyl)-(3-dimethylcarbamoyl-propyl)-amide]
101 to 500	CCC1(C(=O)N(CCCS(N)(=O)=O)c2ccc(Cl)cc2)CCN1C(=O)c1csc2ccccc12 (stereo not shown) [Compound 246, 1-(benzo[b]thiophene-3-carbonyl)-N-(4-chlorophenyl)-2-ethyl-N-(3-sulfamoylpropyl)azetidine-2-carboxamide]
0.01 to 100	CC1(C(=O)N(CCCS(N)(=O)=O)c2ccc(Cl)cc2)CCN1C(=O)c1csc2ccccc12 (stereo not shown) [Compound 206, 1-(Benzo[b]thiophene-3-carbonyl)-2-methyl-azetidine-2-carboxylic acid (4-chloro-phenyl)-(3-sulfamoyl-propyl)-amide]
101 to 500	CC1(C(=O)N(CCCC(=O)O)Cc2ccc(C(F)(F)F)cc2)CCN1C(=O)Cc1coc2ccccc12 (stereo not shown) [Compound 160, 4-[[1-(2-Benzofuran-3-yl-acetyl)-2-methyl-azetidine-2-carbonyl]-(4-trifluoromethyl-benzyl)-amino]-butyric acid]

Continued, compound first:

Compound	IC50 [nM]
CC1(C(=O)N(CCCC(=O)O)Cc2ccc(Cl)cc2)CCN1C(=O)Oc1ccccc1F (stereo not shown) [Compound 210, 4-(N-(4-chlorobenzyl)-1-((2-fluorophenoxy)carbonyl)-2-methylazetidine-2-carboxamido)butanoic acid]	> 1000
Cc1cc(C)cc(CC(=O)N2CCC2(C)C(=O)N(Cc2ccc(Cl)cc2)Cc2nnn[nH]2)c1 (stereo not shown) [Compound 76, 1-[2-(3,5-Dimethyl-phenyl)-acetyl]-2-methyl-azetidine-2-carboxylic acid (4-chloro-benzyl)-(1H-tetrazol-5-ylmethyl)-amide]	> 1000
CC1(C(=O)N(CCC(=O)O)Cc2cccc(Cl)c2)CCN1C(=O)Cc1csc2ccccc12 (stereo not shown) [Compound 170, 3-[[1-(2-Benzo[b]thiophen-3-yl-acetyl)-2-methyl-azetidine-2-carbonyl]-(3-chloro-benzyl)-amino]-propionic acid]	101 to 500
Cc1cc(C)cc(CC(=O)N2CCC2(C)C(=O)N(CC(=O)NC2CC2)Cc2ccc(Cl)cc2)c1 (stereo not shown) [Compound 81, 1-[2-(3,5-Dimethyl-phenyl)-acetyl]-2-methyl-azetidine-2-carboxylic acid (4-chloro-benzyl)-cyclopropylcarbamoylmethyl-amide]	101 to 500
CN(Cc1ccc(Cl)cc1)C(=O)C1(C)CCN1C(=O)Cc1cc(F)cc(F)c1 (stereo not shown) [Compound 19, 1-[2-(3,5-Difluoro-phenyl)-acetyl]-2-methyl-azetidine-2-carboxylic acid (4-chloro-benzyl)-methyl-amide]	> 1000
CC1(C(=O)N(CCC(=O)O)Cc2ccc3cn[nH]c3c2)CCN1C(=O)c1csc2ccccc12 (stereo not shown) [Compound 188, 3-[[1-(Benzo[b]thiophene-3-carbonyl)-2-methyl-azetidine-2-carbonyl]-(1H-indazol-6-ylmethyl)-amino]-propionic acid]	501 to 1000
CNS(=O)(=O)CCCN(Cc1ccc(Cl)cc1)C(=O)C1(C)CCN1C(=O)c1csc2ccccc12 (stereo not shown) [Compound 186, 1-(Benzo[b]thiophene-3-carbonyl)-2-methyl-azetidine-2-carboxlic acid (4-chloro-benzyl)-(3-methylsulfamoyl-propyl)-amide]	101 to 500
CC1(C(=O)N(CCCC(=O)O)Cc2ccc3ccoc3c2)CCN1C(=O)Cc1coc2ccccc12 (stereo not shown) [Compound 164, 4-{[1-(2-Benzofuran-3-yl-acetyl)-2-methyl-azetidine-2-carbonyl]-benzofuran-6-ylmethyl-amino}-butyric acid]	101 to 500
Cc1cc(C)cc(CC(=O)N2CCC2(C)C(=O)N(C)Cc2cccc(Br)c2)c1 (stereo not shown) [Compound 39, 1-[2-(3,5-Dimethyl-phenyl)-acetyl]-2-methyl-azetidine-2-carboxylic acid (3-bromo-benzyl)-methyl-amide]	> 1000
CCOC(=O)CCCN(Cc1ccc(C(F)(F)F)cc1)C(=O)C1(C)CCN1C(=O)c1csc2ccccc12 (stereo not shown) [Compound 141, ethyl 4-(1-(benzo[b]thiophene-3-carbonyl)-2-methyl-N-(4-(trifluoromethyl)benzyl)azetidine-2-carboxamido)butanoate]	> 1000
COc1ccc(OC(=O)N2CCC2(C)C(=O)N(CCCC(=O)O)Cc2ccc(Cl)cc2)c(Cl)c1 (stereo not shown) [Compound 224, 4-(1-((2-chloro-4-methoxyphenoxy)carbonyl)-N-(4-chlorobenzyl)-2-methylazetidine-2-carboxamido)butanoic acid]	> 1000
CC1(C(=O)N(CCCC(=O)O)Cc2ccc(Cl)cc2)CCN1C(=O)Oc1ccccc1Cl (stereo not shown) [Compound 202, 2-[(3-Carboxy-propyl)-(4-chloro-benzyl)-carbamoyl]-2-methyl-azetidine-1-carboxylic acid 2-chloro-phenyl ester]	> 1000
Cc1cc(C)cc(CC(=O)N2CCC2(C)C(=O)N(CCc2nnn[nH]2)Cc2ccc(Cl)cc2)c1 (stereo not shown) [Compound 109, 1-[2-(3,5-Dimethyl-phenyl)-acetyl]-2-methyl-azetidine-2-carboxylic acid (4-chloro-benzyl)-[2-(1H-tetrazol-5-yl)-ethyl]-amide]	101 to 500
CCOC(=O)CCCN(Cc1ccc(C(F)(F)F)cc1)C(=O)C1(C)CCN1C(=O)Cc1csc2ccccc12 (stereo not shown) [Compound 142, 4-[[1-(2-Benzo[b]thiophen-3-yl-acetyl)-2-methyl-azetidine-2-carbonyl]-(4-trifluoromethyl-benzyl)-amino]-butyric acid ethyl ester]	> 1000
CNS(=O)(=O)CCCN(Cc1ccc(Cl)cc1)C(=O)C1(C)CCN1C(=O)Cc1cc(C)cc(C)c1 (stereo not shown) [Compound 174, 1-[2-(3,5-Dimethyl-phenyl)-acetyl]-2-methyl-azetidine-2-carboxylic acid (4-chloro-benzyl)-(3-methylsulfamoyl-propyl)-amide]	101 to 500
CC1(C(=O)N(CCCC(=O)O)Cc2ccc(Cl)cc2)CCN1C(=O)Oc1ccccc1Br (stereo not shown) [Compound 235, 4-(1-((2-bromophenoxy)carbonyl)-N-(4-chlorobenzyl)-2-methylazetidine-2-carboxamido)butanoic acid]	> 1000
CSc1ccc(OC(=O)N2CCC2(C)C(=O)N(CCCC(=O)O)Cc2ccc(Cl)cc2)cc1 (stereo not shown) [Compound 227, 4-(N-(4-chlorobenzyl)-2-methyl-1-((4-(methylthio)phenoxy)carbonyl)azetidine-2-carboxamido)butanoic acid]	501 to 1000
